From patent US9096539B2, “Substituted 4,5-dihydro-2H-benzo[e]indazole-9-carboxylates for the treatment of diabetes and related disorders” (Council of Scientific & Industrial Research, priority 2012, dated 2015)

System: sucrose challenged STZ induced diabetic rats
Assay: Antihyperglycaemic activity in sucrose challenged streptozotocin (STZ)-induced diabetic rats (STZ-S)
Format: in vivo, rat
Details: compounds 100 mg/kg, Januvia 50 mg/kg; for % Antihyperglycaemic activity STZ-S 0-5 h AUC / % Antihyperglycaemic activity STZ-S 0-24 h AUC: oral; for Blood Glucose Profile 0 min (Pre treatment): 0 min pre treatment (fasting baseline)
Description: The test compounds and standard antidiabetic drug Januvia were prepared in 1.0% freshly prepared Gum acacia. Assessment of Test Compounds for Antihyperglycaemic Activity in Sucrose Challenged Streptozotocin STZ-Induced Diabetic Rats— Induction of Diabetes in Rats: Overnight starved male albino rats of Sprague Dawley strain were used and Diabetes was induced in the animals by single intraperitoneal injection of Streptozotocin at 60 mg/kg body weight dose prepared in 0.1M citrate buffer (pH 4.5). Fasting blood glucose level was measured by using a Glucometer (ACCU-CHEK II; […] Grouping and Treatment: […] All the diabetic animals were again divided into groups with five animals in each group. Animals of one group were regarded as the control group (orally administered 1% gum acacia) and the others were treated as the experimental groups. […] Animals of the control group were given an equal amount of 1.0% gum acacia. The standard antidiabetic drug Januvia was given to the animals at an oral dose of 50 mg/kg body weight. […] Food but not water was withheld from the cages during the course of experimentation. Percent hyperglycemic activity was determined by comparing the AUC (area under curve) of experimental groups with that of the vehicle treated control group. Quantitative glucose tolerance of each animal was calculated by the area under the curve (AUC) method using Prism Software. The area under the curve of the control group and the experimental group was compared to determine the percent antihyperglycaemic activity. Statistical comparisons were performed by one-way analysis of variance (ANOVA), followed by Dunnett's multiple range test (DMRT). […] Results were expressed as mean±SEM.

COC(=O)c1c(SC)cc(-c2ccc(C)cc2)c2c1-c1cn(-c3ccccc3)nc1CC2 [compound 5, methyl 8-(methylthio)-2-phenyl-6-p-tolyl-4,5-dihydro-2H-benzo[e]indazole-9-carboxylate]
% Antihyperglycaemic activity STZ-S 0-5 h AUC: 20.4%
% Antihyperglycaemic activity STZ-S 0-24 h AUC: 23.6%
Blood Glucose Profile 0 min (Pre treatment): 222.3 ± 9.39 mg/dL
Blood Glucose Profile 30 min (Post treatment): 515.6 ± 15.5 mg/dL
Blood Glucose Profile 60 min (Post treatment): 528.6 ± 14.4 mg/dL
Blood Glucose Profile 90 min (Post treatment): 506.5 ± 14.0 mg/dL
Blood Glucose Profile 120 min (Post treatment): 459.6 ± 11.2 mg/dL
Blood Glucose Profile 180 min (Post treatment): 402.1 ± 5.58 mg/dL
Blood Glucose Profile 240 min (Post treatment): 332.5 ± 15.6 mg/dL
Blood Glucose Profile 300 min (Post treatment): 284.3 ± 16.9 mg/dL
Blood Glucose Profile 1440 min (Post treatment): 411.1 ± 13.6 mg/dL

COC(=O)c1c(SC)cc(-c2cccc3ccccc23)c2c1-c1cn(-c3ccccc3)nc1CC2 [compound 6, methyl 8-(methylthio)-6-(naphthalen-1-yl)-2-phenyl-4,5-dihydro-2H-benzo[e]indazole-9-carboxylate]
% Antihyperglycaemic activity STZ-S 0-5 h AUC: 29.7%
% Antihyperglycaemic activity STZ-S 0-24 h AUC: 25.7%
Blood Glucose Profile 0 min (Pre treatment): 222.6 ± 6.55 mg/dL
Blood Glucose Profile 30 min (Post treatment): 442.1 ± 18.2 mg/dL
Blood Glucose Profile 60 min (Post treatment): 520.0 ± 10.3 mg/dL
Blood Glucose Profile 90 min (Post treatment): 464.0 ± 14.4 mg/dL
Blood Glucose Profile 120 min (Post treatment): 399.3 ± 14.0 mg/dL
Blood Glucose Profile 180 min (Post treatment): 334.0 ± 13.4 mg/dL
Blood Glucose Profile 240 min (Post treatment): 301.6 ± 18.8 mg/dL
Blood Glucose Profile 300 min (Post treatment): 277.0 ± 10.1 mg/dL
Blood Glucose Profile 1440 min (Post treatment): 405.0 ± 17.6 mg/dL
